Results: ChEMBL document CHEMBL4814071, “Synthesis and antibacterial study of cell-penetrating peptide conjugated trifluoroacetyl and thioacetyl lysine modified peptides” (Eur J Med Chem, 2021)
Counter-ions that a name gives are not always drawn. The source made the active and inactive calls. The rule behind the calls is not given here. *1 amine or outer side, *2 acyl side, *3 side chain or, on linkers, in order; H or OH if unused. Where a SMILES comes first, the peptide text is derived from it. Side-chain parts run from the residue outwards. The star is where a group is joined. NH(2-Me-phenyl) = Cc1ccccc1N*; CO = O=C([*:1])[*:2]; Tfa = O=C(C(F)(F)F)*

Experiments:
[1] = system: Staphylococcus aureus; assay: Antibacterial activity against Staphylococcus aureus assessed as reduction in microbial growth after 24 hrs by microplate reader method; format: functional
[2] = system: Escherichia coli; assay: Antibacterial activity against Escherichia coli assessed as reduction in microbial growth after 24 hrs by microplate reader method; format: functional
[3] = system: Pseudomonas aeruginosa; assay: Antibacterial activity against Pseudomonas aeruginosa assessed as reduction in microbial growth after 24 hrs by microplate reader method; format: functional
[4] = system: Staphylococcus aureus; assay: Synergistic antibacterial activity against Staphylococcus aureus assessed as fractional inhibitory concentration index incubated for 24 hrs in presence of streptomycin; format: functional
[5] = system: Lipid bilayer; assay: Binding affinity to bacterial inner membrane mimic POPE/POPG (3:1) LUVs assessed as increase in intensity by one-dimensional 19F NMR based analysis
[6] = system: Lipid bilayer; assay: Binding affinity to mammalian membrane mimic DOPC/40% cholesterol assessed as calcein leakage at 20 uM by fluorescence based assay; format: ADME
[7] = system: Pseudomonas aeruginosa; assay: Potentiation of polymyxin B-induced antibacterial activity against Pseudomonas aeruginosa assessed as polymyxin B MIC incubated for 24 hrs by microplate reader method; format: functional
[8] = system: Staphylococcus aureus; assay: Potentiation of streptomycin-induced antibacterial activity against Staphylococcus aureus assessed as streptomycin MIC incubated for 24 hrs by microplate reader method; format: functional
[9] = system: Escherichia coli; assay: Potentiation of polymyxin B-induced antibacterial activity against Escherichia coli assessed as polymyxin B MIC incubated for 24 hrs by microplate reader method; format: functional
[10] = molecular target: NAD-dependent histone deacetylase SIR2 (Saccharomyces cerevisiae S288c) (UniProt P06700); assay: Inhibition of yeast sirtuin2-mediated Ura3 transcriptional silencing at telomeric locus assessed as yeast killing at 50 uM incubated for 72 hrs in presence of FOA by absorbance based analysis
NAD-dependent histone deacetylase SIR2 (Saccharomyces cerevisiae S288c), sequence (P06700 whole entry): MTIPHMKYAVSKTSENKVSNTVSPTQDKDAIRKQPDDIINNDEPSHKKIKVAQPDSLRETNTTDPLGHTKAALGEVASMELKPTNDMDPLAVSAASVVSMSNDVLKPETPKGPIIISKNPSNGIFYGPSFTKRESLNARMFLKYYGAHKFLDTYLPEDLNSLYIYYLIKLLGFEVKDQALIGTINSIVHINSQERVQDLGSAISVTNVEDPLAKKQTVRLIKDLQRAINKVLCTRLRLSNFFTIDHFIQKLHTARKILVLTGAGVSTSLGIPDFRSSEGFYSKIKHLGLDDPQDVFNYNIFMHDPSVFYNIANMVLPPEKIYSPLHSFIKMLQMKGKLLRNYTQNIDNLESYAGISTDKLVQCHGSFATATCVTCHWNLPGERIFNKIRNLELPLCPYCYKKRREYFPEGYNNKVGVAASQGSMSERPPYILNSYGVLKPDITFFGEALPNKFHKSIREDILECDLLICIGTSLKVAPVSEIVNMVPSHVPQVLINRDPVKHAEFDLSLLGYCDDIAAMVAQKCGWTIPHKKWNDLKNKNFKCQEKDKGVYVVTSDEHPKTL

[11] = system: Escherichia coli; assay: Antibacterial activity against Escherichia coli assessed as reduction in microbial growth after 24 hrs in presence of polymyxin B by microplate reader method; format: functional
[12] = system: Staphylococcus aureus; assay: Antibacterial activity against Staphylococcus aureus assessed as reduction in microbial growth after 24 hrs in presence of streptomycin by microplate reader method; format: functional
[13] = system: Staphylococcus aureus; assay: Antibiofilm activity against Staphylococcus aureus assessed as biofilm eradication incubated for 24 hrs by crystal violet staining assay; format: functional
[14] = system: Escherichia coli; assay: Antibiofilm activity against Escherichia coli assessed as biofilm eradication incubated for 24 hrs by crystal violet staining assay; format: functional
[15] = system: Staphylococcus aureus; assay: Antibiofilm activity against Staphylococcus aureus assessed as inhibition of biofilm formation incubated for 48 hrs by crystal violet staining assay; format: functional
[16] = system: Escherichia coli; assay: Antibiofilm activity against Escherichia coli assessed as as inhibition of biofilm formation incubated for 48 hrs by crystal violet staining assay; format: functional
[17] = system: Cell membrane; assay: Disruption of membrane integrity in Escherichia coli at 2 times MIC measured after 20 mins by SEM analysis
[18] = system: Cell membrane; assay: Disruption of membrane integrity in Staphylococcus aureus at 2 times MIC measured after 20 mins by SEM analysis
[19] = system: Escherichia coli; assay: Synergistic antibacterial activity against Escherichia coli assessed as fractional inhibitory concentration index incubated for 24 hrs in presence of Polymyxin B; format: functional
[20] = system: Pseudomonas aeruginosa; assay: Synergistic antibacterial activity against Pseudomonas aeruginosa assessed as fractional inhibitory concentration index incubated for 24 hrs in presence of Polymyxin B; format: functional
[21] = system: Lipid bilayer; assay: Binding affinity to bacterial inner membrane mimic DOPE/DOPG (3:1) large unilamellar vesicles assessed as calcein leakage at 20 uM by fluorescence based assay
[22] = Hemolytic activity against mouse RBC at 1000 uM measured after 1 hr by microplate reader analysis; format: cell-based, Erythrocyte; details: mouse red blood cells (erythrocytes), read-out: Activity
[23] = system: HeLa; assay: Cytotoxicity against human HeLa cells assessed as reduction in cell viability incubated for 48 hrs by MTT assay; format: cell-based
[24] = system: BE(2)-C; assay: Cytotoxicity against human BE(2)-C cells assessed as reduction in cell viability incubated for 48 hrs by MTT assay; format: cell-based
[25] = system: Staphylococcus aureus; assay: Antibiofilm activity against Staphylococcus aureus assessed as biofilm eradication at 2XMBEC incubated for 12 hrs by SYTO9/PI staining based microscopic analysis; format: functional, organism-based
[26] = system: Escherichia coli; assay: Antibiofilm activity against Escherichia coli assessed as biofilm eradication at 2XMBEC incubated for 12 hrs by SYTO9/PI staining based microscopic analysis; format: functional, organism-based
[27] = Inhibition of transcriptional machinery using Puc19-lacCONS plasmid DNA and Escherichia coli RNA polymerase-sigma70 holoenzyme at 40 uM incubated for 35 mins followed by NTP addition for 30 mins by spectrofluorometer analysis; format: functional; details: time 65.0 min
[28] = system: Pseudomonas aeruginosa; assay: Antibacterial activity against Pseudomonas aeruginosa assessed as reduction in microbial growth after 24 hrs in presence of polymyxin B by microplate reader method; format: functional
[29] = system: Staphylococcus aureus; assay: Potentiation of streptomycin-induced antibacterial activity against Staphylococcus aureus assessed as fold change in streptomycin MIC incubated for 24 hrs by microplate reader method; format: functional
[30] = system: Cell membrane; assay: Disruption of membrane integrity in Escherichia coli at 2 times MIC by TEM analysis
[31] = system: Lipid bilayer; assay: Binding affinity to bacterial inner membrane mimic DOPE/DOPG (3:1) large unilamellar vesicles assessed as calcein leakage at 2.5 uM by fluorescence based assay
[32] = system: Cell membrane; assay: Disruption of membrane integrity in Staphylococcus aureus at 2 times MIC by TEM analysis
[33] = system: Cell membrane; assay: Disruption of membrane integrity in Escherichia coli assessed as cellular leakage at 2 times MIC by TEM analysis
[34] = Inhibition of transcriptional machinery using Puc19-lacCONS plasmid DNA and Escherichia coli RNA polymerase-sigma70 holoenzyme at 10 uM incubated for 35 mins followed by NTP addition for 30 mins by spectrofluorometer analysis; format: functional; details: time 65.0 min

CC(=O)N[C@@H](Cc1ccc(O)cc1)C(=O)NCC(=O)N[C@@H](CCCNC(=N)N)C(=O)N[C@@H](CCCCN)C(=O)N[C@@H](CCCCN)C(=O)N[C@@H](CCCNC(=N)N)C(=O)N[C@@H](CCCNC(=N)N)C(=O)N[C@@H](CCC(N)=O)C(=O)N[C@@H](CCCNC(=N)N)C(=O)N[C@@H](CCCNC(=N)N)C(=O)N[C@@H](CCCNC(=N)N)C(=O)NCC(=O)NCC(=O)NCC(=O)N[C@@H](CCCCN)C(=O)NCC(=O)N[C@@H](CC(C)C)C(=O)N[C@@H](CCCNC(=N)N)C(=O)N[C@@H](CCCCNC(=O)Nc1ccccc1C)C(=O)N[C@@H](Cc1ccccc1)C(=O)NCC(=O)N[C@@H](C)C(=O)N[C@@H](CCCCN)C(=O)N[C@@H](CCCNC(=N)N)C(=O)N[C@@H](Cc1cnc[nH]1)C(=O)N[C@@H](CCCNC(=N)N)C(=O)N[C@@H](CS)C(=O)O (Ac-YGRKKRRQRRRGGGKGLRK([CO-NH(2-Me-phenyl)])FGAKRHRC-OH)
MIC [1]: 0.2 µM
MIC [2]: 1.5 µM
MIC [3]: 25 µM

CC(=O)N[C@@H](CCCCN)C(=O)NCC(=O)N[C@@H](CC(C)C)C(=O)N[C@@H](CCCNC(=N)N)C(=O)N[C@@H](CCCCNC(=O)C(F)(F)F)C(=O)N[C@@H](Cc1ccccc1)C(=O)NCC(=O)N[C@@H](C)C(=O)N[C@@H](CCCCNC(=O)C(F)(F)F)C(=O)N[C@@H](CCCNC(=N)N)C(=O)N[C@@H](Cc1cnc[nH]1)C(=O)N[C@@H](CCCNC(=N)N)C(=O)N[C@@H](CS)C(N)=O (Ac-KGLRK(Tfa)FGAK(Tfa)RHRC-NH2)
fractional inhibitory concentration index (FICI) [4]: 0.3
Activity [5]: Active
Activity [6]: < 20%
MIC [7]: 0.1 µM
MIC [8]: 0.38 µM
MIC [9]: 0.05 µM
inhibition [10]: Active
MIC [11]: 7.81 µM
MIC [12]: 0.63 µM
MIC [1]: 1.5 µM
MIC [2]: 125 µM
MIC [3]: > 250 µM
MBEC [13]: 12.5 µM
MBEC [14]: inactive
MBIC [15]: 6.3 µM
MBIC [16]: inactive
Activity [17]: inactive
Activity [18]: inactive
fractional inhibitory concentration index (FICI) [19]: 0.19
fractional inhibitory concentration index (FICI) [20]: 0.36
Activity [21]: 70%
hemolysis at 1 h, 1000 µM [22]: < 5%
IC50 [23]: 84.4 µM
IC50 [24]: 81.6 µM
Activity [25]: Active
Activity [26]: Active
inhibition [27]: Active
MIC [28]: 25 µM
fold change (FC) [29]: 6

CC(=O)N[C@@H](Cc1ccc(O)cc1)C(=O)NCC(=O)N[C@@H](CCCNC(=N)N)C(=O)N[C@@H](CCCCN)C(=O)N[C@@H](CCCCN)C(=O)N[C@@H](CCCNC(=N)N)C(=O)N[C@@H](CCCNC(=N)N)C(=O)N[C@@H](CCC(N)=O)C(=O)N[C@@H](CCCNC(=N)N)C(=O)N[C@@H](CCCNC(=N)N)C(=O)N[C@@H](CCCNC(=N)N)C(=O)NCC(=O)NCC(=O)NCC(=O)N[C@@H](CCCCN)C(=O)NCC(=O)N[C@@H](CC(C)C)C(=O)N[C@@H](CCCNC(=N)N)C(=O)N[C@@H](CCCCNC(=O)C(F)(F)F)C(=O)N[C@@H](Cc1ccccc1)C(=O)NCC(=O)N[C@@H](C)C(=O)N[C@@H](CCCCNC(=O)C(F)(F)F)C(=O)N[C@@H](CCCNC(=N)N)C(=O)N[C@@H](Cc1cnc[nH]1)C(=O)N[C@@H](CCCNC(=N)N)C(=O)N[C@@H](CS)C(N)=O (Ac-YGRKKRRQRRRGGGKGLRK(Tfa)FGAK(Tfa)RHRC-NH2)
fractional inhibitory concentration index (FICI) [4]: 0.22
Activity [5]: Active
Activity [6]: < 20%
MIC [7]: 0.05 µM
MIC [8]: 0.38 µM
MIC [9]: 0.1 µM
inhibition [10]: Active
MIC [11]: 0.63 µM
MIC [12]: 0.05 µM
MIC [1]: 0.2 µM
MIC [2]: 1.5 µM
MIC [3]: 25 µM
MBEC [13]: 3.2 µM
MBEC [14]: 62.5 µM
MBIC [15]: 0.8 µM
MBIC [16]: 15.6 µM
Activity [17]: Active
Activity [18]: Active
Activity [30]: Active
fractional inhibitory concentration index (FICI) [19]: 0.73
fractional inhibitory concentration index (FICI) [20]: 0.3
Activity [31]: 90%
Activity [21]: Active
hemolysis at 1 h, 1000 µM [22]: < 5%
IC50 [23]: 31.6 µM
IC50 [24]: 23.4 µM
Activity [25]: Active
Activity [26]: Active
Activity [32]: Active
Activity [33]: Active
inhibition [34]: 100%
MIC [28]: 6.25 µM
fold change (FC) [29]: 6
